The source of these data is US20120220665A1, “Inhibiting Neurotransmitter Reuptake” (MAYO FOUNDATION FOR MEDICAL EDUCATION AND RESEARCH, priority 2009, published 2012).

Usually Kd stands for a measure of binding affinity in units of concentration.

For assay [1], the target named is T1, human dopamine transporter (hDAT) (Homo sapiens, UniProt Q01959).
T1 construct: expressed in transfected cells; host or cells: HEK-293, stably transfected; membranes
The assay can be described thus: Human transporter radioligand binding, hDAT ([3H]WIN35428, HEK-293 membranes). The following applies: HCl salts of test compounds; n ≥ 3, values marked b n = 1; read-out: Equilibrium Dissociation Constant (KD) for Transporter Binding (Geometric Mean; nM ± SEM) hDAT (D). Here is the method:
(§1) HEK-293 cells expressing the recombinant hSERT or hDAT were incubated with Dulbecco's modified Eagles medium (MEM) supplemented with 0.1 mM nonessential amino acid solution for MEM, 5% v/v fetal bovine serum and […] penicillin/streptomycin solution. Cells expressing the hNET transporter were incubated with Dulbecco's modified Eagles medium supplemented with 10% v/v fetal bovine serum and 100 U/mL penicillin/streptomycin solution and 2 mM L-glutamine. All cells were grown until 70-80% confluent on 175 cm^2 flasks in a humidified 10% CO2/90% air environment at 37° C., with the selecting antibiotic Geneticin sulfate at […]. The cells were incubated in 10% CO2, 90% air at 37° C. and 100% humidity.
(§2) Cell membranes containing hSERT, hNET, or hDAT were prepared from the cell lines to assay ligand binding for each of the transporters. […] The washed cells were incubated for 5 minutes at 37° C. in 10 mL solution 1 containing 100 mM ethylene glycol-bis N,N,N′,N′-tetraacetic acid (EGTA). The cells were then scraped from the flask surface with a rubber spatula, placed into a centrifuge tube, and collected by centrifugation at 1000×g for 5 minutes at 4° C. The resulting supernatant was discarded, and the cell pellet was resuspended in 0.5 to1.0 mL of the appropriate binding buffer (described below). The resuspended cell pellet was homogenized using a Polytron for 10 seconds at setting 6. The resulting homogenate was centrifuged at about 36,000×g for 10 minutes at 4° C. The supernatant was discarded, and the pellet was resuspended in the same volume of the appropriate binding buffer and centrifuged again. The supernatant was discarded, and the final pellet containing cell membranes was resuspended in the appropriate binding buffer and stored at −80° C. until use.
To assess binding to the cloned hDAT, cells expressing hDAT were homogenized in 50 mM Tris-HCl with 120 mM NaCl (pH 7.4). The binding reaction contained 15 μg cell membrane protein, 1 nM [^3H]WIN35428 (WIN35428, [N-methyl-^3H], specific activity 85.9 Ci/mmol; PerkinElmer, Boston, Mass.), and varying concentrations of either unlabeled WIN35428 or the test compound. A reaction to determine non-specific binding contained 15 μg cell membrane protein, 1 nM [^3H]WIN35428, and 10 μM final concentration of unlabeled WIN35428. The reactions were incubated at 22° C. for 1 hour. Following incubation, the reactions were terminated by rapid filtration through separate GF/B filter strips pretreated with 0.2% polyethylenimine in a 48-well Brandel cell harvester. The cell membrane-containing filter strips were then rinsed five times with ice-cold 0.9% NaCl. After rinsing, individual filters were cut from the strip and placed in a scintillation vial containing 6.5 mL of Redi-Safe (Beckman-Coulter, Fullerton, Calif.). Radioactivity was measured with a Beckman liquid scintillation counter (LS 6000TA).
(§3) Following the radioligand binding assays, the data were analyzed using the
(§4) The program was modified to calculate the Hill coefficient (nH). Data are presented as geometric mean±S.E.M. of at least three independent experiments. One-component models and two-component models were compared using the root mean square error of each fit and the F test.

The subject of assay [2] is hSERT (S), hNET (N), hDAT (D). The assay can be described thus: Comparison of binding potency across the three human transporters. The following applies: for Potency (rank order of transporter binding): S = hSERT, N = hNET, D = hDAT, order by KD; for Potency Range: highest KD / lowest KD among hSERT, hNET, hDAT. The procedure:
as §1, §2
(§5) Radioligand binding assays for the indicated transporters were performed as follows. To assess binding to the cloned hSERT, cells expressing hSERT were homogenized in 50 mM Tris-HCl with 120 mM NaCl and 5 mM KCl (pH 7.4). The binding reaction consisted of 10 μg cell membrane protein, 1.0 nM [^3H]citalopram (citalopram, [N-methyl-^3H], specific activity 79.0 Ci/mmol; PerkinElmer, Boston, Mass.), and varying concentrations of either unlabeled citalopram or the test compound. A reaction to determine non-specific binding consisted of 10 μg cell membrane protein, 0.5 nM [^3H]citalopram, and 1 μM final concentration of unlabeled citalopram. The reactions were incubated at 22° C. for 60 minutes. Following incubation, the reactions were terminated by rapid filtration through separate GF/B filter strips pretreated with 0.2% polyethylenimine in a 48-well Brandel cell harvester. The cell membrane-containing filter strips were then rinsed five times with ice-cold 0.9% NaCl. After rinsing, individual filters were cut from the strip and placed in a scintillation vial containing 6.5 mL of Redi-Safe (Beckman-Coulter, Fullerton, Calif.). Radioactivity was measured with a Beckman liquid scintillation counter (LS 6000TA).
(§6) To assess binding to the cloned hNET, cells expressing hNET were homogenized in 50 mM Tris-HCl with 300 mM NaCl and 5 mM KCl (pH 7.4). The binding reaction consisted of 5 μg cell membrane protein, 0.5 nM [^3H]nisoxetine (nisoxetine HCl, [N-methyl-^3H], specific activity 82.0 Ci/mmol; Amersham, Arlington Hts., Ill.), and varying concentrations of either unlabeled nisoxetine or the test compound. A reaction to determine non-specific binding consisted of 5 μg cell membrane protein, 0.5 nM [^3H]nisoxetine, and 1 μM final concentration of unlabeled nisoxetine. The reactions were incubated at 22° C. for 60 minutes. Following incubation, the reactions were terminated by rapid filtration through separate GF/B filter strips pretreated with 0.2% polyethylenimine in a 48-well Brandel cell harvester. The cell membrane-containing filter strips were then rinsed five times with ice-cold 0.9% NaCl.

Assay [3] deals with T2, human norepinephrine transporter (hNET) (Homo sapiens, UniProt P23975).
T2 construct: expressed in transfected cells; host or cells: HEK-293, stably transfected; membranes
The assay can be described thus: Human transporter radioligand binding, hNET ([3H]nisoxetine, HEK-293 membranes). The following applies: HCl salts of test compounds; n ≥ 3, values marked b n = 1; read-out: Equilibrium Dissociation Constant (KD) for Transporter Binding (Geometric Mean; nM ± SEM) hNET (N). Here is the method: as §1, §2
as §6, with “NaCl. After rinsing, individual filters were cut from the strip and placed in a scintillation vial containing 6.5 mL of Redi-Safe (Beckman-Coulter, Fullerton, Calif.). Radioactivity was measured with a Beckman liquid scintillation counter (LS 6000TA).” for “NaCl.”
as §3, §4

Assay [4] has as its target T3, human serotonin transporter (hSERT) (Homo sapiens, UniProt P31645).
T3 construct: expressed in transfected cells; host or cells: HEK-293, stably transfected; membranes
The assay can be described thus: Human transporter radioligand binding, hSERT ([3H]citalopram, HEK-293 membranes). The following applies: HCl salts of test compounds; n ≥ 3, values marked b n = 1; read-out: Equilibrium Dissociation Constant (KD) for Transporter Binding (Geometric Mean; nM ± SEM) hSERT (S). Here is the method: as §1, §2, §5, §3, §4

T1 sequence (Q01959 whole entry): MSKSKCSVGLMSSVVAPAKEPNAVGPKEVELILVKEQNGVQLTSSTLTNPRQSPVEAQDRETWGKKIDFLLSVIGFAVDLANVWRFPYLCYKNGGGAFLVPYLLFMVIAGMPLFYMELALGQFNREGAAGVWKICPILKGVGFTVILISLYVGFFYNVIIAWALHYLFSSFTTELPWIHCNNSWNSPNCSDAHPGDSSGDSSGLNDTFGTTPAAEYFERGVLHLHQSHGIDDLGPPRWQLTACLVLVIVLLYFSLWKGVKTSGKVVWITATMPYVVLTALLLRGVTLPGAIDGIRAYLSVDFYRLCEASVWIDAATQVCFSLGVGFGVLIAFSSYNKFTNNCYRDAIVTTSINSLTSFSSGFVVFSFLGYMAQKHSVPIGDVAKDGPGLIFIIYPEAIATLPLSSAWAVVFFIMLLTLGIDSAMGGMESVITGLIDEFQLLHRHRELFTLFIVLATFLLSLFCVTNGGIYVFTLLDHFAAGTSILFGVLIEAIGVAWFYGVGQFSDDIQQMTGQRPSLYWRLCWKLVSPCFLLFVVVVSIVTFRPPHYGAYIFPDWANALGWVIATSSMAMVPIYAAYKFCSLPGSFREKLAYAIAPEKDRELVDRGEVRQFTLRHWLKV
T3 sequence (P31645 whole entry): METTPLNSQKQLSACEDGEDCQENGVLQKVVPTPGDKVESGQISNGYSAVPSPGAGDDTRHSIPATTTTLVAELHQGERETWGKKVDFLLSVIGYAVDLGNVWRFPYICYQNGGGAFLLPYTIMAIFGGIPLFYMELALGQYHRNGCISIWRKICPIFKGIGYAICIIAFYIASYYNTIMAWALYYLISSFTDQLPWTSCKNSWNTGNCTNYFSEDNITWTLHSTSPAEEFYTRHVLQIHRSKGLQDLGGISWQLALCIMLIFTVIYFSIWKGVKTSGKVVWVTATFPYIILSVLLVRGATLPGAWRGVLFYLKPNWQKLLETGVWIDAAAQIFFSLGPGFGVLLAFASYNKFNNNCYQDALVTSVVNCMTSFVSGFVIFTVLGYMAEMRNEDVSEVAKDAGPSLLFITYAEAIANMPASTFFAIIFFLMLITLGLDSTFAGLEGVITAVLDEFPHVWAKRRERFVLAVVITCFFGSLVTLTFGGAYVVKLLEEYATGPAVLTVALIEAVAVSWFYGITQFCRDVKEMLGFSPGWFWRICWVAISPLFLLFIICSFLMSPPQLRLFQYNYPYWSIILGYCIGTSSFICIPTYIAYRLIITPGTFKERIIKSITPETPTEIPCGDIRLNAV
T2 sequence (P23975 whole entry): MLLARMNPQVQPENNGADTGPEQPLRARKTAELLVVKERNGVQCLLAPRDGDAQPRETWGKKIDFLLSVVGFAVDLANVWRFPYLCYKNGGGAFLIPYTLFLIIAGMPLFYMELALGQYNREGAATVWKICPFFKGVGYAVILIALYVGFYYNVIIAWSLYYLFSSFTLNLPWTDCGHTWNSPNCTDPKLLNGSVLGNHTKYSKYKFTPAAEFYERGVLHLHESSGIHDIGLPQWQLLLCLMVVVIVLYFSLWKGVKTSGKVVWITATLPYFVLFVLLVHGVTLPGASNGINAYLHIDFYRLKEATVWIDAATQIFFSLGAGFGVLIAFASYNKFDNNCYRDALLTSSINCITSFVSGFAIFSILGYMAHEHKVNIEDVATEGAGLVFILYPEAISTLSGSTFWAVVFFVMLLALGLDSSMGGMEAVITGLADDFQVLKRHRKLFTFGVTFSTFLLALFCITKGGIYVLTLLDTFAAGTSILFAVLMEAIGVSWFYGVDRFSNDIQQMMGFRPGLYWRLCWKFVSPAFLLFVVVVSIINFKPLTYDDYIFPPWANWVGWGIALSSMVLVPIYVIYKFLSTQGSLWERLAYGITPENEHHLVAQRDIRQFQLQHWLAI

Regarding `CNC[C@H](c1ccc2ccccc2c1)[C@@H](O)c1ccc(F)cc1` [MCJ001-4F—Ph—OH-RS/SR, (1R,2S)-1-(4-fluorophenyl)-3-(methylamino)-2-(naphthalen-2-yl)propan-1-ol], the Kd stood at 250 ± 40 nM in assay [1], 49 ± 4 nM in assay [3] and 27 ± 4 nM in assay [4]. Moreover, the “Potency (rank order of transporter binding)” value in assay [2] was “S > N > D”. For the same compound, the “Potency Range” value in assay [2] was 9.
The like results for `CN(C)C[C@H](c1ccc2ccccc2c1)[C@H](Cl)c1ccccc1` [MCJ002-Cl-SS, (2S,3S)-3-chloro-N,N-dimethyl-2-(naphthalen-2-yl)-3-phenylpropan-1-amine] were, in that order, 270 ± 30 nM, 50 ± 8 nM, 8.3 ± 0.9 nM, “S > N > D” and 32.
With `CN1Cc2c(N)cccc2C(c2ccccc2)C1` (stereo not shown) [Nomifensine, reference compound], in assay [2], the “Potency (rank order of transporter binding)” value is reported as “N > D > S”.
Same read-out and setting: the entry for `CN(C)CCCN1c2ccccc2CCc2ccccc21` [Imipramine, reference compound] is “S > N > D”.
For the compound `CNC[C@H](c1ccc2ccccc2c1)[C@H](O)c1ccccc1` [PRC200-SS, (1S,2S)-3-(methylamino)-2-(naphthalen-2-yl)-1-phenylpropan-1-ol], the Kd was 27 ± 3 nM in assay [1], 0.6 ± 0.2 nM in assay [3] and 3.8 ± 0.3 nM in assay [4]. Moreover, the “Potency (rank order of transporter binding)” value in assay [2] was “N > S > D”. In addition, the “Potency Range” value in assay [2] is listed as 45.
The like results for `CN(C)C[C@H](c1ccc2ccccc2c1)[C@@H](Cl)c1ccccc1` [MCJ002-Cl-RS, (2S,3R)-3-chloro-N,N-dimethyl-2-(naphthalen-2-yl)-3-phenylpropan-1-amine] were, in that order, 390 ± 30 nM, 90 ± 10 nM, 7.4 ± 0.9 nM, “S > N > D” and 53.
The like results for `CNCC(c1ccccc1)C(O)c1ccc(Br)cc1` [MCJ001-Br—Ph—OH-RS/SR, (1R,2S/1S,2R)-1-(4-bromophenyl)-3-(methylamino)-2-phenylpropan-1-ol] were, in that order, 1520 nM, 4500 nM, 3320 nM, “D > S > N” and 3.
On to `CNC[C@H](c1ccc2ccccc2c1)[C@@H](OCCCCCCCO[C@@H](c1ccccc1)[C@H](CNC)c1ccc2ccccc2c1)c1ccccc1` [MCJ001-Dimer7-SS, (2S,2′S,3R,3′R)-3,3′-(heptane-1,7-diylbis(oxy))bis(N-methyl-2-(naphthalen-2-yl)-3-phenylpropan-1-amine)], for which the Kd in assay [1] was determined as 180 ± 20 nM; in assay [3] it was 29 ± 1 nM; in assay [4], 50 ± 3 nM. In addition, the “Potency (rank order of transporter binding)” value in assay [2] was “N > S > D”. The “Potency Range” value in assay [2] is reported as 6.
`CNC[C@H](c1ccccc1)[C@@H](O)c1ccc2ccccc2c1` [MCJ001-NA-Ph—OH-RS/SR, (1R,2S/1S,2R)-3-(methylamino)-1-(naphthalen-2-yl)-2-phenylpropan-1-ol]: the Kd in assay [1] turned out to be 8900 ± 20 nM; in assay [3], 7620 nM; in assay [4], 75 ± 2 nM. In addition, in assay [2], the “Potency (rank order of transporter binding)” value is listed as “S > N > D”. In addition, in assay [2], the “Potency Range” value is listed as 120.
As to `CN(C)C[C@H](c1ccc2ccccc2c1)[C@@H](F)c1ccccc1` [MCJ002-F-RS, (2S,3R)-3-fluoro-N,N-dimethyl-2-(naphthalen-2-yl)-3-phenylpropan-1-amine], the Kd in assay [1] was 280 ± 20 nM; in assay [3], 45 ± 3 nM; in assay [4], 7 ± 0.5 nM. Besides, the “Potency (rank order of transporter binding)” value in assay [2] is recorded as “S > N > D”. Further, in assay [2], the “Potency Range” value is on record as 40.
The like results for `CNC[C@H](c1ccccc1)[C@@H](O)c1ccc(F)cc1` [MCJ001-F—Ph—OH-RS/SR, (1R,2S)-1-(4-fluorophenyl)-3-(methylamino)-2-phenylpropan-1-ol] were, in that order, 75200 nM, 2660 nM, 11900 nM, “N > S > D” and 28.
In the case of `CNCC[C@H](Oc1cccc2ccccc12)c1cccs1` [Duloxetine, reference compound], the “Potency (rank order of transporter binding)” value in assay [2] is on record as “S > N > D”.
Still for that read-out and setting: the entry for `CCOc1ccccc1OC(c1ccccc1)C1CNCCO1` (stereo not shown) [Reboxetine, reference compound] is “N > S > D”; for `CCN(CC)C(=O)C1(c2ccccc2)CC1CN` (stereo not shown) [Milnacipran, reference compound] it is “S > N > D”.
In the case of `CNCC(c1ccccc1)C(O)c1ccc(Br)cc1` [MCJ001-Br—Ph—OH-SS/RR, (1S,2S/1R,2R)-1-(4-bromophenyl)-3-(methylamino)-2-phenylpropan-1-ol], the Kd in assay [1] was 28400 nM; in assay [4] it was 7300 nM.
